Reference: US8802597B2, “Herbicidal pyrimidines” (E I du Pont de Nemours and Company, priority 2003, dated 2014)

Assays:
Assay type in all cases: in vivo
[1] = system: giant foxtail (Setaria faberi); assay: Test A pre/postemergence
Summary of the method: (§1)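 Pre/post greenhouse screen; loam/sand soil; solvent + surfactant formulation; pre = directed soil spray at planting, post = 1–2 leaf plants, 2–10 cm; ~10 d; visual 0–100 rating vs untreated.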

[2] = system: morningglory (Ipomoea spp.); assay: Test A pre/postemergence
Summary of the method: as §1

[3] = system: redroot pigweed (Amaranthus retroflexus); assay: Test A pre/postemergence
Summary of the method: as §1

[4] = system: barnyardgrass (Echinochloa crus-galli); assay: Test A pre/postemergence
Summary of the method: as §1

[5] = system: velvetleaf (Abutilon theophrasti); assay: Test A pre/postemergence
Summary of the method: as §1

[6] = system: crabgrass (Digitaria sanguinalis); assay: Test A pre/postemergence
Summary of the method: as §1

[7] = system: rice flatsedge (Cyperus iria); assay: Test E flooded paddy water application; conditions: Flood, 21 days, scale 0 to 100 (0 no effect, 100 complete control)
Summary of the method: (§2)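 Greenhouse pots of Tama silt loam with weeds and rice at 2.0–2.5-leaf stage, flooded to 3 cm; compounds applied directly into paddy water, depth maintained. Visual rating versus untreated controls after 21 days, 0 (no effect) to 100 (complete control); 29.5/26.7 °C, 16-h photoperiod.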

[8] = system: water seeded rice seedlings (Oryza sativa cv. ‘Japonica-M202’); assay: Test E flooded paddy water application; conditions: Flood, 21 days, scale 0 to 100 (0 no effect, 100 complete control)
Summary of the method: as §2

[9] = system: purple redstem (Ammannia coccinea); assay: Test E flooded paddy water application; conditions: Flood, 21 days, scale 0 to 100 (0 no effect, 100 complete control)
Summary of the method: as §2

[10] = system: junglerice (Echinochloa colona); assay: Test E flooded paddy water application; conditions: Flood, 21 days, scale 0 to 100 (0 no effect, 100 complete control)
Summary of the method: as §2

[11] = system: ducksalad (Heteranthera limosa); assay: Test E flooded paddy water application; conditions: Flood, 21 days, scale 0 to 100 (0 no effect, 100 complete control)
Summary of the method: as §2

[12] = system: barnyardgrass (Echinochloa crus-galli); assay: Test E flooded paddy water application; conditions: Flood, 21 days, scale 0 to 100 (0 no effect, 100 complete control)
Summary of the method: as §2

[13] = system: early watergrass (Echinochloa oryzoides); assay: Test E flooded paddy water application; conditions: Flood, 21 days, scale 0 to 100 (0 no effect, 100 complete control)
Summary of the method: as §2

[14] = system: transplanted rice seedlings (Oryza sativa cv. ‘Japonica-M202’); assay: Test E flooded paddy water application; conditions: Flood, 21 days, scale 0 to 100 (0 no effect, 100 complete control)
Summary of the method: as §2

[15] = system: smallflower umbrella sedge (Cyperus difformis); assay: Test E flooded paddy water application; conditions: Flood, 21 days, scale 0 to 100 (0 no effect, 100 complete control)
Summary of the method: as §2

[16] = system: late watergrass (Echinochloa oryzicola); assay: Test E flooded paddy water application; conditions: Flood, 21 days, scale 0 to 100 (0 no effect, 100 complete control)
Summary of the method: as §2

[17] = system: bearded (brdd.) sprangletop (Leptochloa fusca ssp. fascicularis); assay: Test E flooded paddy water application; conditions: Flood, 21 days, scale 0 to 100 (0 no effect, 100 complete control)
Summary of the method: as §2

[18] = Postemergence, 125 g ai/ha, 0 to 100 scale (0 no effect, 100 complete control)
[19] = Postemergence, 500 g ai/ha, 0 to 100 scale (0 no effect, 100 complete control)
[20] = Preemergence, 125 g ai/ha, 0 to 100 scale where 0 is no effect and 100 is complete control, approximately ten days
[21] = Preemergence, 500 g ai/ha, 0 to 100 scale where 0 is no effect and 100 is complete control, approximately ten days

Structure (SMILES): CCOC(=O)c1nc(-c2ccc(C)c(C)c2)nc(N)c1Br [Compound 70]
- Plant response rating, Foxtail, Giant [1, 18]: 0
- Plant response rating, Foxtail, Giant [1, 19]: 0
- Plant response rating, Foxtail, Giant [1, 20]: 5
- Plant response rating, Foxtail, Giant [1, 21]: 5
- Plant response rating, Morningglory [2, 18]: 0
- Plant response rating, Morningglory [2, 19]: 10
- Plant response rating, Morningglory [2, 20]: 0
- Plant response rating, Morningglory [2, 21]: 0
- Plant response rating, Pigweed [3, 18]: 15
- Plant response rating, Pigweed [3, 19]: 20
- Plant response rating, Pigweed [3, 20]: 0
- Plant response rating, Pigweed [3, 21]: 10
- Plant response rating, Barnyardgrass [4, 18]: 0
- Plant response rating, Barnyardgrass [4, 19]: 0
- Plant response rating, Barnyardgrass [4, 20]: 0
- Plant response rating, Barnyardgrass [4, 21]: 0
- Plant response rating, Velvetleaf [5, 18]: 35
- Plant response rating, Velvetleaf [5, 19]: 60
- Plant response rating, Velvetleaf [5, 20]: 20
- Plant response rating, Velvetleaf [5, 21]: 35
- Plant response rating, Crabgrass [6, 18]: 0
- Plant response rating, Crabgrass [6, 19]: 20
- Plant response rating, Crabgrass [6, 20]: 5
- Plant response rating, Crabgrass [6, 21]: 20
- Flatsedge, Rice plant response rating ([7]; 32 g ai/ha): 0
- Flatsedge, Rice plant response rating ([7]; 64 g ai/ha): 0
- Flatsedge, Rice plant response rating ([7]; 125 g ai/ha): 30
- Flatsedge, Rice plant response rating ([7]; 250 g ai/ha): 65
- Plant response rating, Flatsedge, Rice ([7]; 16 g ai/ha): 0
- Rice, Water Seeded plant response rating ([8]; 32 g ai/ha): 0
- Rice, Water Seeded plant response rating ([8]; 64 g ai/ha): 0
- Rice, Water Seeded plant response rating ([8]; 125 g ai/ha): 0
- Rice, Water Seeded plant response rating ([8]; 250 g ai/ha): 0
- Plant response rating, Rice, Water Seeded ([8]; 16 g ai/ha): 0
- Redstem plant response rating ([9]; 32 g ai/ha): 0
- Redstem plant response rating ([9]; 64 g ai/ha): 0
- Redstem plant response rating ([9]; 125 g ai/ha): 0
- Redstem plant response rating ([9]; 250 g ai/ha): 0
- Plant response rating, Redstem ([9]; 16 g ai/ha): 0
- Junglerice plant response rating ([10]; 32 g ai/ha): 0
- Junglerice plant response rating ([10]; 64 g ai/ha): 0
- Junglerice plant response rating ([10]; 125 g ai/ha): 0
- Junglerice plant response rating ([10]; 250 g ai/ha): 0
- Plant response rating, Junglerice ([10]; 16 g ai/ha): 0
- Ducksalad plant response rating ([11]; 32 g ai/ha): 40
- Ducksalad plant response rating ([11]; 64 g ai/ha): 100
- Ducksalad plant response rating ([11]; 125 g ai/ha): 100
- Ducksalad plant response rating ([11]; 250 g ai/ha): 100
- Plant response rating, Ducksalad ([11]; 16 g ai/ha): 0
- Barnyardgrass plant response rating ([12]; 32 g ai/ha): 0
- Barnyardgrass plant response rating ([12]; 64 g ai/ha): 0
- Barnyardgrass plant response rating ([12]; 125 g ai/ha): 0
- Barnyardgrass plant response rating ([12]; 250 g ai/ha): 0
- Plant response rating, Barnyardgrass ([12]; 16 g ai/ha): 0
- Watergrass, Early plant response rating ([13]; 32 g ai/ha): 0
- Watergrass, Early plant response rating ([13]; 64 g ai/ha): 0
- Watergrass, Early plant response rating ([13]; 125 g ai/ha): 0
- Watergrass, Early plant response rating ([13]; 250 g ai/ha): 0
- Plant response rating, Watergrass, Early ([13]; 16 g ai/ha): 0
- Rice, Transplanted plant response rating ([14]; 32 g ai/ha): 0
- Rice, Transplanted plant response rating ([14]; 64 g ai/ha): 0
- Rice, Transplanted plant response rating ([14]; 125 g ai/ha): 0
- Rice, Transplanted plant response rating ([14]; 250 g ai/ha): 0
- Plant response rating, Rice, Transplanted ([14]; 16 g ai/ha): 0
- Sedge, Umbrella plant response rating ([15]; 32 g ai/ha): 0
- Sedge, Umbrella plant response rating ([15]; 64 g ai/ha): 0
- Sedge, Umbrella plant response rating ([15]; 125 g ai/ha): 0
- Sedge, Umbrella plant response rating ([15]; 250 g ai/ha): 60
- Plant response rating, Sedge, Umbrella ([15]; 16 g ai/ha): 0
- Watergrass, Late plant response rating ([16]; 32 g ai/ha): 0
- Watergrass, Late plant response rating ([16]; 64 g ai/ha): 0
- Watergrass, Late plant response rating ([16]; 125 g ai/ha): 0
- Watergrass, Late plant response rating ([16]; 250 g ai/ha): 0
- Plant response rating, Watergrass, Late ([16]; 16 g ai/ha): 0
- Sprangletop, Brdd. plant response rating ([17]; 32 g ai/ha): 0
- Sprangletop, Brdd. plant response rating ([17]; 64 g ai/ha): 0
- Sprangletop, Brdd. plant response rating ([17]; 125 g ai/ha): 0
- Sprangletop, Brdd. plant response rating ([17]; 250 g ai/ha): 0
- Plant response rating, Sprangletop, Brdd. ([17]; 16 g ai/ha): 0
